Laboratory results: patent US20150168379A1, “METHOD OF IDENTIFYING AND SCREENING DRUG CANDIDATE FOR PREVENTING AND/OR TREATING ISCHEMIC MYOCARDIAL DISEASE” (Macau University of Science and Technology, priority 2013, published 2015)
“Also recorded” adds a separate entry of the source.

Tests used:
H9C2 cell line [1] = assay: Cell cytotoxicity of myocardial cells under hypoxia and reoxygenation by flow cytometry; type: cell-based; conditions: pretreated, FIG. 5
Experimental: (§1) Myocardial cell lines, H9C2 and HL-1 were respectively seeded into culture dishes. KRB (Krebs-Ringer Bicarbonate buffer) solution replaced normal DMEM medium without the addition of serum. Cells were immediately placed in adjustable hypoxia box (Billups-Rothenberg) connected with gas flowmeter (rate of flow: 25L/min), in which the partial pressure of oxygen in the box was made to decrease from 20 kPa to 0 kPa within one minute. Hypoxia box was placed in a regular incubator for different incubation periods to create hypoxia conditions. […]
(§2) Seven components of protopanaxatriol-type ginsenosides, namely Re, Rf, Rg1, 20(S)-Rg2, 20(R)-Rg2, 20(S)-Rh1 and 20(R)-Rh1, were used to pre-treat myocardial cells. […] The effects of each component on survival, mitochondrial respiration, morphology, and mitochondrial function and movement of myocardial cells were analyzed, and the results thereof were used in candidate agent selection.
(§3) Membrane potential of mitochondria, apoptosis rate, ROS release and cell cytotoxicity of myocardial cells were analyzed by flow cytometry. […] Fluorescence intensity of cells were analyzed by flow cytometry (each sample contains more than 10,000 cells). Cell fluorescence image was analyzed with fluorescence intensity of Rh123 as x-axis and fluorescence intensity of PI as y-axis. […]

H9C2 cell line [2] = assay: Apoptosis rate of myocardial cells under hypoxia and reoxygenation by flow cytometry; type: cell-based; conditions: 3-hour hypoxia and 3-hour reoxygenation
Experimental: as §1, §2, §3

H9C2 cell line [3] = assay: ROS release (DCFDA, flow cytometer); type: cell-based
Experimental: Cells were harvested and a single cell suspension was produced by gently pipetting up and down suspension cells or by fully detaching adherent cells. Cells in culture media were stained with 20 μM DCFDA and incubated for 30 minutes at 37° C. After staining, cells were treated with Rg1, DOX or Sil. Cells were gently pipetted to produce single cell suspension. Cells were then analyzed by flow cytometer in which forward and side scatter gates were established to exclude debris and cellular aggregates from the analysis. DCF was excited by the 488 nm laser and detected at 535 nm (typically FL1). 10,000 cells were analyzed per experimental condition. The whole study was repeated 3 times.

H9C2 cell line [4] = assay: Survival rate of myocardial cells under hypoxia and reoxygenation (MTT); type: cell-based; conditions: H9C2, pre-treated one hour before hypoxia, FIG. 2/3
Experimental: as §1
as §2, with “selection. […]” for “selection.”
Optical density (OD) of cells was measured at wavelength of 570 nm by multiple-well plate spectrophotometer. Survival rate of the cells incubated under normal condition was set as 100%, and the survival rate of the blank control group was measured simultaneously as baseline for background subtraction. […]

H9C2 cell line [5] = assay: Mitochondrial membrane potential changes by flow cytometer (JC-1); type: cell-based
Experimental: Myocardial cell lines, H9C2 and HL-1 were respectively seeded into culture dishes. KRB (Krebs-Ringer Bicarbonate buffer) solution replaced normal DMEM medium without the addition of serum. Cells were immediately placed in adjustable hypoxia box (Billups-Rothenberg) connected with gas flowmeter (rate of flow: 25L/min), in which the partial pressure of oxygen in the box was made to decrease from 20 kPa to 0 kPa within one minute. Hypoxia box was placed in a regular incubator for different incubation periods to create hypoxia conditions. Hypoxia box was then opened and the medium was replaced with normal medium containing serum, followed by normal incubation at 37° C. for the time periods corresponding to those in the hypoxia conditions in order to create re-oxygenation conditions.
Seven components of protopanaxatriol-type ginsenosides, namely Re, Rf, Rg1, 20(S)-Rg2, 20(R)-Rg2, 20(S)-Rh1 and 20(R)-Rh1, were used to pre-treat myocardial cells. Each component was dissolved with normal medium and DMSO as co-solvent and used to pre-treat cells one hour before hypoxia. Subsequently, medium was replaced with hypoxia medium. The effects of each component on survival, mitochondrial respiration, morphology, and mitochondrial function and movement of myocardial cells were analyzed, and the results thereof were used in candidate agent selection.
Membrane potential of mitochondria, apoptosis rate, ROS release and cell cytotoxicity of myocardial cells were analyzed by flow cytometry. Upon pre-treatment of cells in different groups with Rg1, Sil (Sildenafil, the positive control drug), DOX (Doxorubicin, a cardiac toxic chemical which can induce H/R damage in myocardial cells) or FCCP (Carbonyl cyanide 4-(trifluoromethoxy) phenylhydrazone), the cells were then treated with hypoxia and reoxygenation conditions, in which the duration of each condition was 3 hours. 1 ml PBS buffer was added into culture dish with mixing. […] Fluorescence intensity of cells were analyzed by flow cytometry (each sample contains more than 10,000 cells). […]

Mitofusin 2 (Mfn2) = biological target: T1, Mitofusin 2 (Mfn2) (Mus musculus, UniProt Q80U63); assay: Binding with mitofusin-2 in myocardial cells under hypoxia and reoxygenation (western blotting); conditions: FIG. 9
T1 construct: endogenous in cells; host or cells: myocardial cells under hypoxia and reoxygenation (method text: total protein from mouse myocardial infarction tissue)
T1 sequence (Q80U63 1-757): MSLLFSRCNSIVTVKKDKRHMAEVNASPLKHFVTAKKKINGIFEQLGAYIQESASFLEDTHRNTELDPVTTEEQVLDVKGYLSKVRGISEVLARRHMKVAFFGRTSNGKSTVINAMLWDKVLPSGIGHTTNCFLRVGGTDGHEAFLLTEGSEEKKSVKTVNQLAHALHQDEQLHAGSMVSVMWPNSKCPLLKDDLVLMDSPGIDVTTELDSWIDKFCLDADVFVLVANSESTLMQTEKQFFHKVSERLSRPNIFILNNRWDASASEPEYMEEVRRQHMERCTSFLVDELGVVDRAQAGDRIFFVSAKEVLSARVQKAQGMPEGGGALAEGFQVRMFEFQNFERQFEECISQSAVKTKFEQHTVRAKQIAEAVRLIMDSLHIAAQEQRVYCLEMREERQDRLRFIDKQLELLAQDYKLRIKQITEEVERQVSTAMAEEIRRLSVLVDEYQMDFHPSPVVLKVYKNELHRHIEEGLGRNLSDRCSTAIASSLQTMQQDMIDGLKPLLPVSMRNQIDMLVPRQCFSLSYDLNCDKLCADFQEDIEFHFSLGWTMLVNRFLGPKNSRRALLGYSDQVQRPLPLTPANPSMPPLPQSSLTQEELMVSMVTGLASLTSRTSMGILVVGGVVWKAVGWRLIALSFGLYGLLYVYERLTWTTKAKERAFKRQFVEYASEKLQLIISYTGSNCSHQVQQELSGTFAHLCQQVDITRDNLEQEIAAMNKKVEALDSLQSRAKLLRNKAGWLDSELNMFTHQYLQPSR

[6] = tested on: bal-2, procaspase-3, procaspase-9, Akt, and Erk in myocardial cells; assay: Expression levels of proteins of the mitochondrial-induced apoptosis pathway by western blotting; type: cell-based; conditions: 100 μM
[7] = 100 μM, compared with the control group
[8] = 200 μM, compared with the control group

CC(C)=CCC[C@](C)(O[C@@H]1O[C@H](CO)[C@@H](O)[C@H](O)[C@H]1O)[C@H]1CC[C@]2(C)[C@@H]1[C@H](O)C[C@@H]1[C@@]3(C)CC[C@H](O)C(C)(C)[C@@H]3[C@@H](O[C@@H]3O[C@H](CO)[C@@H](O)[C@H](O)[C@H]3O)C[C@]12C [Rg1]
Cytotoxicity of myocardial cells (H9C2 cell line [1]): can decrease the cytotoxicity | Apoptosis rate of myocardial cells (H9C2 cell line [2]; [7]): significantly inhibit apoptosis | Apoptosis rate of myocardial cells (H9C2 cell line [2]; 200 μM): can decrease apoptosis rate; also recorded: significantly inhibit apoptosis | ROS release (H9C2 cell line [3]; [7]): significantly reduce the release of ROS | ROS release (H9C2 cell line [3]; [8]): significantly reduce the release of ROS | ROS release (H9C2 cell line [3]; concentration not given, FIG. 7): can decrease the release of ROS | Survival rate of myocardial cells (H9C2 cell line [4]): capable of increasing survival rate | Mitochondrial membrane potential changes (H9C2 cell line [5]; [7]): significantly reduce the decrease of mitochondrial membrane potential changes | Mitochondrial membrane potential changes (H9C2 cell line [5]; [8]): significantly reduce the decrease of mitochondrial membrane potential changes | Mitochondrial membrane potential changes (H9C2 cell line [5]; JC-1, hypoxia and reoxygenation, concentration not given, FIG. 6): can inhibit the decrease of mitochondrial membrane potential changes | Binding with Mitofusin 2 (Mfn2) in mitochondria (Mitofusin 2 (Mfn2)): binding with Mitofusin 2 (Mfn2) | Protection for myocardial cells induced by hypoxia and reoxygenation [6]: significant protection
